Source: US11504396B2 (NKMAX Co., Ltd., priority 2016, dated 2022)

Legend:
[1] = system: THP-1 (acute monocyte leukemia) cells; test: Cytotoxicity of NK cells to leukemia cells (THP-1); type: cell-based; conditions: NK cells treated with ponatinib 500 nM for 6 hrs, co-cultured 48 hours
Source text: (§1) IL-2 is a well-known activator of effector cells such as NK cells.

[2] = system: HL-60 (acute promyelocytic leukemia) cells; test: Cytotoxicity of NK cells to leukemia cells (HL-60); type: cell-based; conditions: NK cells treated with ponatinib 500 nM for 6 hrs, co-cultured 48 hours
Source text: as §1

[3] = system: KG-1 (acute myelogenous leukemia) cells; test: Cytotoxicity of NK cells to leukemia cells (KG-1); type: cell-based; conditions: NK cells treated with ponatinib 500 nM for 6 hrs, co-cultured 48 hours
Source text: as §1

[4] = system: MDA-MB-231 (breast cancer) cells; test: Cytotoxicity of NK cells to solid tumor cells (MDA-MB-231); type: cell-based; conditions: NK cells treated with 50 nM Ponatinib for 6 hrs, co-cultured 48 hrs
[5] = system: MIA PaCa-2 (pancreatic cancer) cells; test: Cytotoxicity of NK cells to solid tumor cells (MIA PaCa-2); type: cell-based; conditions: NK cells treated with 200 nM Ponatinib for 6 hrs, co-cultured 48 hrs
[6] = system: SNU-245, the biliary tract cancer cell line; test: 4 hr cytotoxic activity assay of pretreated NK cells against SNU-245; type: cell-based, human; conditions: FIG. 4; ponatinib 150 nM 24 hrs, washed; E:T 3:1, 1:1, 0.3:1 for 4 hrs
Source text: (§2) NK cells (effector cells) were co-cultured with cancer cells (target cells; SNU-245 and AGS cells) at the effector-to-target (E:T) cell count ratio (3:1, 1:1, 0.3:1) for 4 hrs.

[7] = system: AGS, the stomach cancer cell line; test: 4 hr cytotoxic activity assay of pretreated NK cells against AGS; type: cell-based, human; conditions: FIG. 4; ponatinib 150 nM 24 hrs, washed; E:T 3:1, 1:1, 0.3:1 for 4 hrs
Source text: as §2

[8] = system: NK cells; test: Annexin V/7-AAD analysis of NK cells co-cultured with K562 cells; type: cell-based; conditions: FIG. 11; ponatinib 150 nM 24 hrs, then K562 cells E:T 5:1 for 4 hrs; vs untreated cells
Procedure: After incubation, NK cells were collected and analyzed for cell death by annexin-V and 7-AAD analysis.

[9] = system: AGS (the stomach cancer cell line)
[10] = system: MDA-MB-231 (the breast cancer cell line)
[11] = system: human NK cells; conditions: FIG. 9; NK cells treated with ponatinib 50 or 150 nM 24 hrs, tail vein, one day after injection; vs non-treated NK cells
[12] = system: Huh-7.5 (hepatic cell line showing subgenomic and genomic hepatitis C virus RNA replication); test: Cytotoxicity of NK cells to virus-transformed cell lines (Huh-7.5); conditions: NK cells treated with ponatinib 150 nM for 16 hours, co-cultured 48 hours
[13] = system: HepG2.2.15 (hepatic cell transformed with hepatitis B virus and producing HBV); test: Cytotoxicity of NK cells to virus-transformed cell lines (HepG2.2.15); conditions: NK cells treated with ponatinib 150 nM for 16 hours, co-cultured 48 hours
[14] = system: human NK cells; test: NK cell cycle analysis by propidium iodide staining and flow cytometry; conditions: FIG. 12; ponatinib 150 nM for 2 days; vs control NK cells
[15] = system: SNU-387 (the liver cancer cell line); test: 2 day cytotoxicity assay of kinase inhibitor pretreated NK cells against SNU-387; conditions: FIG. 7B; pretreatment 24 hrs; E:T 0.5:1, 48 hrs
[16] = system: SNU-245 (the biliary tract cancer cell line); test: 2 day cytotoxicity assay against SNU-245 cells (pretreated or formulated NK cells, or ponatinib alone)
[17] = FIG. 5, high concentrations of ponatinib, 24 hrs, E:T 0.5:1 for 2 days
[18] = FIG. 8, ponatinib 150 nM 24 hrs, washed, E:T 0.5:1 for 2 days
[19] = FIG. 8, ponatinib added to target cells without NK cells, 2 days

## Cc1ccc(C(=O)Nc2ccc(CN3CCN(C)CC3)c(C(F)(F)F)c2)cc1C#Cc1cnc2cccnn12 [Ponatinib, 3-(2-imidazo[1,2-b]pyridazin-3-ylethynyl)-4-methyl-N-[4-[(4-methylpiperazin-1-yl)methyl]-3-(trifluoromethyl)phenyl]benzamide]
[1]; E:T = 0.1:1, With IL-2
  Cytotoxicity of NK Cells to THP-1 Cells: 79 ± 4%
[1]; E:T = 0.1:1, Without IL-2
  Cytotoxicity of NK Cells to THP-1 Cells: 20 ± 1%
[1]; E:T = 1:1, With IL-2
  Cytotoxicity of NK Cells to THP-1 Cells: 99 ± 0%
[1]; E:T = 1:1, Without IL-2
  Cytotoxicity of NK Cells to THP-1 Cells: 83 ± 1%
[2]; E:T = 0.1:1, With IL-2
  Cytotoxicity of NK Cells to HL-60 Cells: 76 ± 9%
[2]; E:T = 0.1:1, Without IL-2
  Cytotoxicity of NK Cells to HL-60 Cells: 13 ± 3%
[2]; E:T = 1:1, With IL-2
  Cytotoxicity of NK Cells to HL-60 Cells: 98 ± 2%
[2]; E:T = 1:1, Without IL-2
  Cytotoxicity of NK Cells to HL-60 Cells: 89 ± 4%
[3]; E:T = 0.1:1, With IL-2
  Cytotoxicity of NK Cells to KG-1 Cells: 93 ± 1%
[3]; E:T = 0.1:1, Without IL-2
  Cytotoxicity of NK Cells to KG-1 Cells: 81 ± 1%
[3]; E:T = 1:1, With IL-2
  Cytotoxicity of NK Cells to KG-1 Cells: 99 ± 1%
[3]; E:T = 1:1, Without IL-2
  Cytotoxicity of NK Cells to KG-1 Cells: 99 ± 1%
[4]; E:T = 0.1:1, With IL-2
  Cytotoxicity of NK Cells to MDA-MB-231 Cells: 28 ± 5%
[4]; E:T = 0.1:1, Without IL-2
  Cytotoxicity of NK Cells to MDA-MB-231 Cells: 34 ± 4%
[4]; E:T = 0.5:1, With IL-2
  Cytotoxicity of NK Cells to MDA-MB-231 Cells: 59 ± 8%
[4]; E:T = 0.5:1, Without IL-2
  Cytotoxicity of NK Cells to MDA-MB-231 Cells: 54 ± 8%
[5]; E:T = 0.1:1, With IL-2
  Cytotoxicity of NK Cells to MIA PaCa-2 Cells: 66 ± 5%
[5]; E:T = 0.1:1, Without IL-2
  Cytotoxicity of NK Cells to MIA PaCa-2 Cells: 43 ± 8%
[5]; E:T = 0.5:1, With IL-2
  Cytotoxicity of NK Cells to MIA PaCa-2 Cells: 100 ± 0%
[5]; E:T = 0.5:1, Without IL-2
  Cytotoxicity of NK Cells to MIA PaCa-2 Cells: 78 ± 2%
[6]
  cytotoxic activity of pretreated NK cells against SNU-245: strongly enhanced cytotoxicity
[7]
  cytotoxic activity of pretreated NK cells against AGS: strongly enhanced cytotoxicity
[8]
  apoptotic NK cell population (Annexin V+/7-AAD− and Annexin V+/7-AAD+): significantly reduced
  necrotic NK cell population (Annexin V−/7-AAD+): significantly reduced
[9]; [17]
  cytotoxic activity of ponatinib-pretreated NK cells against AGS: decreased
[9]; [18]
  viability of AGS cancer cells co-cultured with NK cells pretreated with ponatinib: significantly decreased
[9]; [19]
  cytotoxic activity of ponatinib treatment alone against AGS: did not show cytotoxic activity
[10]; [17]
  cytotoxic activity of ponatinib-pretreated NK cells against MDA-MB-231: decreased
[10]; [18]
  viability of MDA-MB-231 cancer cells co-cultured with NK cells pretreated with ponatinib: significantly decreased
[10]; [19]
  cytotoxic activity of ponatinib treatment alone against MDA-MB-231: did not show cytotoxic activity
[11]
  total human NK cells in blood of injected mice: more human NK cells
  viability of human NK cells in blood of injected mice: higher viability
[12]; E:T = 0.1:1, W/IL-2
  Cytotoxicity of NK Cells to Hur-7.5 Cells: 76%
[12]; E:T = 0.1:1, W/O IL-2
  Cytotoxicity of NK Cells to Hur-7.5 Cells: 48%
[12]; E:T = 0.5:1, W/IL-2
  Cytotoxicity of NK Cells to Hur-7.5 Cells: 96%
[12]; E:T = 0.5:1, W/O IL-2
  Cytotoxicity of NK Cells to Hur-7.5 Cells: 78%
[13]; E:T = 0.1:1, With IL-2
  Cytotoxicity of NK Cells to HepG2.2.15 Cells: 75%
[13]; E:T = 0.1:1, Without IL-2
  Cytotoxicity of NK Cells to HepG2.2.15 Cells: 59%
[13]; E:T = 0.5:1, With IL-2
  Cytotoxicity of NK Cells to HepG2.2.15 Cells: 88%
[13]; E:T = 0.5:1, Without IL-2
  Cytotoxicity of NK Cells to HepG2.2.15 Cells: 74%
[14]
  fraction of G0/G1 phases of NK cells: concomitant decrease
  fraction of S and G2/M phases of NK cells: increased
[15]
  anti-cancer cytotoxicity of kinase inhibitor pretreated NK cells against SNU-387 vs untreated NK cells: higher anti-cancer cytotoxicity
[16]; FIG. 7A, pretreatment 24 hrs, E:T 0.5:1, 48 hrs
  anti-cancer cytotoxicity of kinase inhibitor pretreated NK cells against SNU-245 vs untreated NK cells: higher anti-cancer cytotoxicity
[16]; [18]
  viability of SNU-245 cancer cells co-cultured with NK cells pretreated with ponatinib: significantly decreased
[16]; [19]
  cytotoxic activity of ponatinib treatment alone against SNU-245: did not show cytotoxic activity
